Patent US20110098219A1, “System for Curing Hepatic Cancer with Leptin” (KAOHSIUNG MEDICAL UNIVERSITY, priority 2009, published 2011)

Legend:
Type in all cases: cell-based
[1] = tested on: cleaved caspase 3, cleaved caspase 7 and cleaved PARP; experiment: Western blotting of apoptosis-related proteins; details: 24 hours
Protocol: Please refer to FIG. 7, which is a view showing effect of MPA+leptin on related proteins for apoptosis. As shown in the figure, through analysis on liver cancer cells after applied with MPA+leptin for 24 hours, observation is done with a focus on changes of their related proteins for apoptosis. When different doses of MPA are combined with different doses of leptin for treatment for 24 hours, cellular proteins of anti-cleaved caspase 3, anti-cleaved caspase 7 and anti-cleaved Poly-ADP-ribose-polymerase (PARP) are processed with western blotting.

[2] = tested on: JAK/STAT path; experiment: Western blotting of JAK/STAT path proteins in liver cancer cells; details: 24 hours
Protocol: Please refer to FIG. 11, which is a view showing expression of JAK/STAT path after applied with a drug. As shown in the figure, the preferred embodiment analyzes related proteins of liver cancer cells through western blotting after applied with MPA+leptin for 24 hours.
Please refer to FIG. 13A and FIG. 13A, which are views showing expressions of proteins of JAK/STAT path and proteins of MAPK path after applied with a drug for a short time. As shown in the figures, the preferred embodiment processes liver cancer cells with high-dose leptin, high-dose MPA and high-dose leptin combined with high-dose MPA for 30 minutes. Then, related JAK/STAT proteins are collected for analyzing their expressions through western blotting.
Please refer to FIG. 14, which is a view showing reduced p-STAT3 degradation by suppressing the ERK1/2 activation and the PIAS3 expression. […] The preferred embodiment uses a 10^−6M p-ERK1/2 inhibitor (U0126) for 4 hours before a drug is applied; then, liver cancer cells are applied with the drug of MPA+leptin for 3 hours to collect cellular proteins for analyzing expression of related proteins through western blotting. […] As a conclusion, MPA activates ERK1/2 to indirectly induce PIAS3 expression for suppressing p-STAT3 (Tyr705) for cell apoptosis, where leptin enhances activation of ERK1/2 with MPA for increasing cell apoptosis.
Please refer to FIG. 15A to FIG. 16B, which are views showing cells containing very much leptin within; suppressed growth of the cells by using MPA; and STAT3- and MAPK-signal paths of the cells after MPA is applied. […] Then, after the cells are processed with 10^−4M MPA for 24 hours, cell growth is analyzed through XTT assay. […] Then, after the cells are processed with 10^−4 M MPA for 24 hours, JAK/STAT-related proteins are analyzed through western blotting.

[3] = tested on: epithelial cell line of normal liver (THLE-3); experiment: XTT assay, survival of normal liver epithelial cell line; details: THLE-3, FIG. 17A
Protocol: Please refer to FIG. 17A to FIG. 18B, which are views showing epithelial cell line of normal liver treated with MPA+leptin for 24 hours and 48 hours respectively; and views showing STAT3- and MAPK-related signal paths after treating cell line of normal liver with MPA+leptin. As shown in the figures, after epithelial cell line of normal liver (THLE-3) is applied with MPA+leptin for […], MPA+leptin's effect on cell growth (i.e. survival rate) is analyzed through XTT assay. […] Besides, in FIG. 18A and FIG. 18B, protein expressions for STAT- and MAPK-related signal paths are analyzed.

With `CC(=O)O[C@]1(C(C)=O)CC[C@H]2[C@@H]3C[C@H](C)C4=CC(=O)CC[C@]4(C)[C@H]3CC[C@@]21C` [MPA, medroxyprogesterone acetate] the “activation of cleaved caspase 3/7 and cleaved PARP” value [1] was “obviously activated”, the “p-ob-R, ob-R and PgR expression” value [2] was “suppresses” and the “activation of STAT3 compared with cells without much leptin” value ([2]; pcLeptin-transfected cells, 10^-4 M MPA) was “more obviously suppressed”. The “effect on survival rate of, and poisoning of, normal liver epithelial cells” value [3] was “no obvious effect”.
